Measurements from patent US20090197967A1, “COMPOSITIONS AND METHODS FOR TREATMENT OF OPHTHALMIC DISEASES AND DISORDERS” (priority 2006, published 2009).

Target: T1, visual cycle trans-cis isomerohydrolase (isomerase) (Bos taurus, UniProt Q28175)
T1 construct: Bovine Retinal Pigment Epithelium (RPE) microsome membranes were the source of visual cycle trans-cis isomerohydrolase (isomerase); from tissue; host or cells: bovine retinal pigment epithelium (RPE) microsome membranes; CRALBP made in E. coli
T1 sequence (Q28175 2-533 limits assumed): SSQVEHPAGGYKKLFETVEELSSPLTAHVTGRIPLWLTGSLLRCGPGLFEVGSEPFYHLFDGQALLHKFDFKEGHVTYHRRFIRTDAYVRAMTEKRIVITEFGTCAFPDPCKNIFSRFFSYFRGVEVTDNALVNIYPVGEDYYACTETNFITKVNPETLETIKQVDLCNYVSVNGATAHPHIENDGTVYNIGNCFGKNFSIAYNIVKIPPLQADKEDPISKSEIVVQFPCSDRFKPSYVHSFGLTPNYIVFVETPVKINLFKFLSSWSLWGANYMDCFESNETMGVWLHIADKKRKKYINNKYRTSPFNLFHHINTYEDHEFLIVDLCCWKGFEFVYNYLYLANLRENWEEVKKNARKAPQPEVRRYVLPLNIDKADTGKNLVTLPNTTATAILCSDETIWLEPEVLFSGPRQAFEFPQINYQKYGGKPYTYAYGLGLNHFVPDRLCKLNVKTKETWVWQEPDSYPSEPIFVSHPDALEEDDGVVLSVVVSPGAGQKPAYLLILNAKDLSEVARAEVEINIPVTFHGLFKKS
Test: Isomerase reaction: inhibition of isomerase by retinylamine derivative compounds (bovine RPE microsomes, HPLC read-out)
Assay type: biochemical
Details: 5 min preincubation at 37° C., 10 μM all-trans-retinol, 6 μM apo-CRALBP, 30 minutes
Description: The capability of several retinylamine compounds to inhibit the activity of visual cycle trans-cis isomerohydrolase (isomerase) was determined.
Isomerase and LRAT reaction—The isomerase reaction was performed essentially as described previously (Stecher et al., J Biol Chem 274:8577-85 (1999); see also Golczak et al., supra). Bovine Retinal Pigment Epithelium (RPE) microsome membranes were the source of visual cycle trans-cis isomerohydrolase (isomerase).
RPE microsome membrane extracts may be purchased or prepared according to methods practiced in the art and stored at −80° C. Crude RPE microsome extracts were thawed in a 37° C. water bath, and then immediately placed on ice. 50 ml crude RPE microsomes were placed into a 50 ml Teflon-glass homogenizer (Fisher Scientific, catalog no. 0841416M) on ice, powered by a hand-held DeWalt drill, and homogenized ten times up and down on ice under maximum speed. This process was repeated until the crude RPE microsome solution was homogenized. The homogenate was then subjected to centrifugation (50.2 Ti rotor (Beckman, Fullerton, Calif.), 13,000 RPM; 15360 Rcf) for 15 minutes at 4° C. The supernatant was collected and subjected to centrifugation a5 42,000 RPM (160,000 Rcf, 50.2 Ti rotor) for 1 hour at 4° C. The supernatant was removed, and the pellets were suspended in 12 ml (final volume) cold 10 mM MOPS buffer, pH 7.0. The resuspended RPE membranes in 5 ml aliquots were homogenized in a glass-to-glass homogenizer (Fisher Scientific, catalog no. K885500-0021) to high homogeneity. Protein concentration was quantified using the BCA protein assay according to the manufacturer's protocol (Pierce, Rockford, Ill.; catalog no. 23227). The homogenized RPE preparations were stored at −80° C.
Recombinant human apo cellular retinaldehyde-binding protein (CRALBP) was cloned and expressed according to standard methods in the molecular biology art (see Crabb et al., Protein Science 7:746-57 (1998); Crabb et al., J. Biol. Chem. 263:18688-92 (1988)). Briefly, total RNA was prepared from confluent ARPE19 cells (American Type Culture Collection, Manassas, Va.), cDNA was synthesized using an oligo(dT)12-18 primer, and then DNA encoding CRALBP was amplified by two sequential polymerase chain reactions (see Crabb et al., J. Biol. Chem. 263:18688-92 (1988); Intres, et al., J. Biol. Chem. 269:25411-18 (1994); GenBank Accession No. L34219.1). The PCR product was sub-cloned into pTrcHis2-TOPO TA vector according to the manufacturer's protocol (Invitrogen Inc., Carlsbad, Calif.; catalog no. K4400-01), and then the sequence was confirmed according to standard nucleotide sequencing techniques. Recombinant 6×His-tagged human CRALBP was expressed in One Shot TOP 10 chemically competent E. coli cells (Invitrogen), and the recombinant polypeptide was isolated from E. coli cell lysates by nickel affinity chromatography using Ni Sepharose XKI 6-20 columns for HPLC (Amersham Bioscience, Pittsburgh, Pa.; catalog no. 17-5268-02). The purified 6×His-tagged human CRALBP was dialyzed against 10 mM bis-tris-Propane (BTP) and analyzed by SDS-PAGE. The molecular weight of the recombinant human CRALBP was approximately 39 kDal.
The isomerase assay was performed in 10 mM BTP buffer, pH 7.5, 1% BSA, containing 1 mM ATP and 6 μM apo-CRALBP (cellular retinaldehyde-binding protein). To investigate inhibition properties of retinylamine derivative compounds, RPE microsomes were preincubated for 5 min in 37° C. with a compound in 10 mM BTP buffer, pH 7.5, 1% BSA, and 1 mM ATP prior to addition of apo-CRALBP and 10 μM all-trans-retinol. Retinylamine derivative compounds were delivered to the reaction mixture in 2 μl ethanol. If the compounds were not soluble in ethanol, DMF was added until the compound was in solution. The same volume of ethanol and/or DMF was added to the control reaction (absence of test compound). […]

Question: Which IC50 does the source give for CC1=C(/C=C/C(C)=C2C=C/C(=C/CN)CCC/2)C(C)(C)CCC1 [Cmpd 1] here?
Answer: 3.1 µM

Question: With CC1=C(/C=C/C(C)=C2C=C/C(=C/CN)CC/2)C(C)(C)CCC1 [Cmpd 2] as the molecule, how does the IC50 read?
Answer: 0.55 µM

Question: With CC1=C(/C=C/C(C)=C/C=C/C(C)=C/CN)C(C)(C)CCC1 [Cmpd 3] as the molecule, how does the IC50 read?
Answer: 0.7 µM

Question: For CC1=C(/C=C/C(C)=C/C=C/CN)C(C)(C)CCC1 [Cmpd 4], which IC50 is on record?
Answer: 5.8 µM

Question: For CC(=CCCCCN)/C=C/C1=C(C)CCCC1(C)C [Cmpd 5], which IC50 is on record?
Answer: 1.7 µM

Question: For CC1=C(/C=C/C(C)=C/CN)C(C)(C)CCC1 [Cmpd 7], which IC50 is on record?
Answer: 8.4 µM

Question: For CC1=C(/C=C/C(C)=C/C=C\CCCN)C(C)(C)CCC1 [Cmpd 8], which IC50 is on record?
Answer: 0.6 µM

Question: For CC1=C(/C=C/C(C)=C/C=C/CCCN)C(C)(C)CCC1 [Cmpd 9], which IC50 is on record?
Answer: 6 µM

Question: With CC1=C(/C=C/C(C)=C/C=C/CCCCN)C(C)(C)CCC1 [Cmpd 10] as the molecule, how does the IC50 read?
Answer: 14 µM

Question: Which IC50 does the source give for CC1=C(/C=C/C(C)=C/C=C/C(C)=C/CN)C(C)(C)CCC1OCc1ccccc1 (stereo not drawn) [Cmpd 11] here?
Answer: 17 µM

Question: For CC1=C(/C=C/C(C)=C/C=CCCCCCCN)C(C)(C)CCC1 [Cmpd 12], which IC50 is on record?
Answer: 25 µM

Question: With CC1=C(/C=C/C(C)=C/C=C/CCCCCCN)C(C)(C)CCC1 [Cmpd 13] as the molecule, how does the IC50 read?
Answer: 200 µM

Question: For CC1=C(/C=C/C(C)N)C(C)(C)CCC1 (stereo not drawn) [Cmpd 14], which IC50 is on record?
Answer: 80 µM

System: RXR
Test: not given
Details: at micromolar concentrations; cited from earlier work

Question: Which “interaction with RXR” value does the source give for CC1=C(/C=C/C(C)=C/C=C/C(C)=C/CN)C(C)(C)CCC1 [Ret-NH2, retinylamine] here?
Answer: does not interact

System: RAR
Test: not given
Details: at micromolar concentrations; cited from earlier work

Question: For CC1=C(/C=C/C(C)=C/C=C/C(C)=C/CN)C(C)(C)CCC1 [Ret-NH2, retinylamine], which “interaction with RAR” value is on record?
Answer: does not interact
